# Key:
# Test in all cases: radiometric filter-binding kinase assay, Kinase HotSpot
# Conditions in all cases: compound 0.5 µM; ATP 10 µM
# CDK5 CDK5R1 p25 (human) = CDK5 CDK5R1 p25 (human) (UniProt Q00535+Q15078)
# CAMK1 (human) = CAMK1 (human) (UniProt Q14012)
# STK11 (human) = STK11 (human) (UniProt Q15831)
# LIMK1 (human) = LIMK1 (human) (UniProt P53667)
# PRKCE (human) = PRKCE (human) (UniProt Q02156)
# CSNK1E (human) = CSNK1E (human) (UniProt P49674)
# DMPK (human) = DMPK (human) (UniProt Q09013)
# CDK1 CCNA2 (human) = CDK1 CCNA2 (human) (UniProt P06493+P20248)
# ADRBK1 (human) = ADRBK1 (human) (UniProt P25098)
# ERBB2 (human) = ERBB2 (human) (UniProt P04626)
# PAK1 (human) = PAK1 (human) (UniProt Q13153)
# MAPK13 (human) = MAPK13 (human) (UniProt O15264)
# FRK (human) = FRK (human) (UniProt P42685)
# PHKG1 (human) = PHKG1 (human) (UniProt Q16816)
# CLK1 (human) = CLK1 (human) (UniProt P49759)
# PRKACA (human) = PRKACA (human) (UniProt P17612)
# SRPK1 (human) = SRPK1 (human) (UniProt Q96SB4)
# NEK7 (human) = NEK7 (human) (UniProt Q8TDX7)
# MYLK2 (human) = MYLK2 (human) (UniProt Q9H1R3)
# PRKCB2 (human) = PRKCB2 (human) (UniProt P05771)
# PTK2 (human) = PTK2 (human) (UniProt Q05397)
# RPS6KA6 KD1 KD2 (human) = RPS6KA6 KD1 KD2 (human) (UniProt Q9UK32)
# KDR (human) = KDR (human) (UniProt P35968)
# DYRK3 (human) = DYRK3 (human) (UniProt O43781)
# ACVR1B (human) = ACVR1B (human) (UniProt P36896)
# STK17A (human) = STK17A (human) (UniProt Q9UEE5)
# PKN2 (human) = PKN2 (human) (UniProt Q16513)
# RPS6KA2 KD1 KD2 (human) = RPS6KA2 KD1 KD2 (human) (UniProt Q15349)
# MAP3K2 (human) = MAP3K2 (human) (UniProt Q9Y2U5)
# FGFR1 (human) = FGFR1 (human) (UniProt P11362)
# MKNK2 (human) = MKNK2 (human) (UniProt Q9HBH9)
# PTK6 (human) = PTK6 (human) (UniProt Q13882)
# NEK1 (human) = NEK1 (human) (UniProt Q96PY6)
# PAK7 (human) = PAK7 (human) (UniProt Q9P286)
# DDR2 (human) = DDR2 (human) (UniProt Q16832)
# GSK3A (human) = GSK3A (human) (UniProt P49840)
# INSRR (human) = INSRR (human) (UniProt P14616)
# PRKCH (human) = PRKCH (human) (UniProt P24723)
# CAMKK2 (human) = CAMKK2 (human) (UniProt Q96RR4)
# PHKG2 (human) = PHKG2 (human) (UniProt P15735)
# BRSK1 (human) = BRSK1 (human) (UniProt Q8TDC3)
# DYRK1A (human) = DYRK1A (human) (UniProt Q13627)
# PHKG2 (human), sequence (P15735 whole entry, looked up): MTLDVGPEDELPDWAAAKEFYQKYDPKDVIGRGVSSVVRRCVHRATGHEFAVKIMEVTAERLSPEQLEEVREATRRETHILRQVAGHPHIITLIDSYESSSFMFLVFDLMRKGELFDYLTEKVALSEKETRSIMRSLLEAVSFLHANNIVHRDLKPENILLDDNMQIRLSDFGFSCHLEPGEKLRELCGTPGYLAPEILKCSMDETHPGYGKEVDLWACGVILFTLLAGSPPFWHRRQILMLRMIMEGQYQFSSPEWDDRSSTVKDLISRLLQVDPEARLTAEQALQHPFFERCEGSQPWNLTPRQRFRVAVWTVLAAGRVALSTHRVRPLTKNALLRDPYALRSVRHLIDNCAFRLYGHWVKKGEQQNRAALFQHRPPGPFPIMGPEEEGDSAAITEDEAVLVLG
# DMPK (human), sequence (Q09013 whole entry, looked up): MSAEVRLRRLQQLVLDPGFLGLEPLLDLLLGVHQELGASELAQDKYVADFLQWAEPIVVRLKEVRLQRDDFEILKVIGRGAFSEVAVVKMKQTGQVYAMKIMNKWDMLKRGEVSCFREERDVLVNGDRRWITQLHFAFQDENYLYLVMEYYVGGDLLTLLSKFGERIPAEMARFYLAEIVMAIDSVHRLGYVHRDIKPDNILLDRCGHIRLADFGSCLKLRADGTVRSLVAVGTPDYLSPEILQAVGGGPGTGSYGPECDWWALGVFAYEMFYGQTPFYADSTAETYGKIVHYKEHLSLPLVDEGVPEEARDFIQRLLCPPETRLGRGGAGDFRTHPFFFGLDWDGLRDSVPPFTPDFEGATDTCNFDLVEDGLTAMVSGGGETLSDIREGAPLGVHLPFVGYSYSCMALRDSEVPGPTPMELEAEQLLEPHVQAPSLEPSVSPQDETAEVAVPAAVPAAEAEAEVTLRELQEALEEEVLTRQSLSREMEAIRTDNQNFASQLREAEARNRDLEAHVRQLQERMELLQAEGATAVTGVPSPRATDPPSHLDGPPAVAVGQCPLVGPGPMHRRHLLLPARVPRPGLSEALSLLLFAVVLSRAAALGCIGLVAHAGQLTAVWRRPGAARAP
# RPS6KA6 KD1 KD2 (human), sequence (Q9UK32 whole entry, looked up): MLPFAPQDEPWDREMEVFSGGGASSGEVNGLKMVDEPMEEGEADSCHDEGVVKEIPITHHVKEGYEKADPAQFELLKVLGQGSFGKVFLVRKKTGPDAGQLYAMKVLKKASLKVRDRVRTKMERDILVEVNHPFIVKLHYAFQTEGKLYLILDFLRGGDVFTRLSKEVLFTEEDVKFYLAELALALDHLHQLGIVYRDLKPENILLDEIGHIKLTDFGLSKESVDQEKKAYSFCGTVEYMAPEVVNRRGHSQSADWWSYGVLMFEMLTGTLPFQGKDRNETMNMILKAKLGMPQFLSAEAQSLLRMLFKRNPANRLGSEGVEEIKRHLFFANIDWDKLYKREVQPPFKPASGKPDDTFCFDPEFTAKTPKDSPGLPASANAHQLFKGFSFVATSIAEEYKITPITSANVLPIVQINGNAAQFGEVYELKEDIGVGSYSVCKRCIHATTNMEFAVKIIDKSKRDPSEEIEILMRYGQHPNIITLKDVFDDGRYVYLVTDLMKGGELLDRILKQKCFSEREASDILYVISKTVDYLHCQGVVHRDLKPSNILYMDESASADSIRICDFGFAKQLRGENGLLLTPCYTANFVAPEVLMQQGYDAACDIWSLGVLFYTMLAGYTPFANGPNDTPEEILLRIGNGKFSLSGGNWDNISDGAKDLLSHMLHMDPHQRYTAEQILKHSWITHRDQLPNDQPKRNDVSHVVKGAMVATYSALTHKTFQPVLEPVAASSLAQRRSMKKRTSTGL
# ERBB2 (human), sequence (P04626 whole entry, looked up): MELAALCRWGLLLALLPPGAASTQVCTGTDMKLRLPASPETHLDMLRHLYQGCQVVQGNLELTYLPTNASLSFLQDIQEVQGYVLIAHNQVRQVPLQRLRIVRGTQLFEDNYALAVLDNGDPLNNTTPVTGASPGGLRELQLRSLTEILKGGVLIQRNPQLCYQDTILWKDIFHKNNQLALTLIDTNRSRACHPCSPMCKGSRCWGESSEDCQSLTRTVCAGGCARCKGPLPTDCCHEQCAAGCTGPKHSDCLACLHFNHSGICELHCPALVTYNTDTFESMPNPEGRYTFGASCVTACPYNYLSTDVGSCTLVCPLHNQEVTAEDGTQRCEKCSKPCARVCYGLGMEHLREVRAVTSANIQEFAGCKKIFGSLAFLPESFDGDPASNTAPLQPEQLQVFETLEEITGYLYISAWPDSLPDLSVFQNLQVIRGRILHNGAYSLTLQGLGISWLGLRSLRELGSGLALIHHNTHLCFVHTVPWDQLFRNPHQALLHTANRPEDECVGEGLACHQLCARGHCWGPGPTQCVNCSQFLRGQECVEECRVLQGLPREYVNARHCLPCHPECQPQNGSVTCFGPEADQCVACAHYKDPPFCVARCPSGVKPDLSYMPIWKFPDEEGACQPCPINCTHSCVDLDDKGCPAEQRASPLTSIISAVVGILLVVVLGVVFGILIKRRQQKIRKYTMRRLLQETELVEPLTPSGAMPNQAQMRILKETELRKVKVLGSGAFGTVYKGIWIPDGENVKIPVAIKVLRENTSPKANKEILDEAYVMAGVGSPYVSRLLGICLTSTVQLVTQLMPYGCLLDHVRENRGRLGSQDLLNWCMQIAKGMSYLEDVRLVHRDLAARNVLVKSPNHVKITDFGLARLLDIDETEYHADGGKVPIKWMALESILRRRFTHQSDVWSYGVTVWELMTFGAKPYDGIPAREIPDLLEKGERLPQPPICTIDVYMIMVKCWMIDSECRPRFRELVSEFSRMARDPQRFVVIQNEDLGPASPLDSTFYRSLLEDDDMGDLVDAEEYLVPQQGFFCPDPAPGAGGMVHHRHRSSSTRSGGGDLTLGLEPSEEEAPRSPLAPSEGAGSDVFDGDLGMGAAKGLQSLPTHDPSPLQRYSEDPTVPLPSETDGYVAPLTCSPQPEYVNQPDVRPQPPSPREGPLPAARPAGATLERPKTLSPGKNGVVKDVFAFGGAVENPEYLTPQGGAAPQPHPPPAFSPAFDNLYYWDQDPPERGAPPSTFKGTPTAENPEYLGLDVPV
# PAK7 (human), sequence (Q9P286 whole entry, looked up): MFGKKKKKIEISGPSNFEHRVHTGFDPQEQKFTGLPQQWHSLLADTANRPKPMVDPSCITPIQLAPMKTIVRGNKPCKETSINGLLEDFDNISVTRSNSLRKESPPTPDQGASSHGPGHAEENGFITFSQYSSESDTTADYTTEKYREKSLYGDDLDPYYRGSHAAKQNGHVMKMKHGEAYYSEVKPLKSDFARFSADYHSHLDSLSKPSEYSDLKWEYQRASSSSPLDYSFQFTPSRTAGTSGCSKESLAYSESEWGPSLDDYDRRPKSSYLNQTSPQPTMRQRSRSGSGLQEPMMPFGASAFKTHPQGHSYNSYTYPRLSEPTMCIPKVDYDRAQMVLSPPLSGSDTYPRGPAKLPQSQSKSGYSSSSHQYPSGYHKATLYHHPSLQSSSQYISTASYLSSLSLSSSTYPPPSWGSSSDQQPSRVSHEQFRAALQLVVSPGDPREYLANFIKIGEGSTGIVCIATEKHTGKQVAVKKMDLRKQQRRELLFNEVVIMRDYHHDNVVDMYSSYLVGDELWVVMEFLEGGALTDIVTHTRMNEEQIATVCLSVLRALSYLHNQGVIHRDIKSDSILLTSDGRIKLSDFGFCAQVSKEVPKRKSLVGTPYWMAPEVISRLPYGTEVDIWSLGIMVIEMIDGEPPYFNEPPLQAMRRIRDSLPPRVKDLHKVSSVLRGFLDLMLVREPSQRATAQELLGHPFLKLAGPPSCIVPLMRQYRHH
# DDR2 (human), sequence (Q16832 whole entry, looked up): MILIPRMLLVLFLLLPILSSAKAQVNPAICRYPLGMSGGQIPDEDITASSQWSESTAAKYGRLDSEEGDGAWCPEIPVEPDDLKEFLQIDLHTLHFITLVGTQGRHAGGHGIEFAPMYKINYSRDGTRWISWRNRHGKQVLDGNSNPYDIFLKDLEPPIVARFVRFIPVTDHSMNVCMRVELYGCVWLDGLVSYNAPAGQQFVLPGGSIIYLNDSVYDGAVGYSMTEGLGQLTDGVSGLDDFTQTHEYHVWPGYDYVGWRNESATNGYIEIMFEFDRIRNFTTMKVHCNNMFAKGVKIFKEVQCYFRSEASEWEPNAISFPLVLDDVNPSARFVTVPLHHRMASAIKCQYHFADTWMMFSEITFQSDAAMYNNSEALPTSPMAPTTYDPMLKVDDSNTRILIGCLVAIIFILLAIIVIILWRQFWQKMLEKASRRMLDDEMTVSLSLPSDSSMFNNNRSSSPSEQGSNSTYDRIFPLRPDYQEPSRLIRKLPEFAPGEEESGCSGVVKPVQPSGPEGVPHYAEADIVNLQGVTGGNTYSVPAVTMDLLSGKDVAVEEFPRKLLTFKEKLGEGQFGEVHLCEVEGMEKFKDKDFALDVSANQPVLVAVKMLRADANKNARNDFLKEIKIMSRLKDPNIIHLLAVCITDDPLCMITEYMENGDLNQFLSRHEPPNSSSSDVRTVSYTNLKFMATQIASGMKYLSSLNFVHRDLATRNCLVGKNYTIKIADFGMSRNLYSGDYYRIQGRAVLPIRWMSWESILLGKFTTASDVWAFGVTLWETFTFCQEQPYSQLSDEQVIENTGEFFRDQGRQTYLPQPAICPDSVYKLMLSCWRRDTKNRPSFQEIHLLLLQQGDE
# PHKG1 (human), sequence (Q16816 whole entry, looked up): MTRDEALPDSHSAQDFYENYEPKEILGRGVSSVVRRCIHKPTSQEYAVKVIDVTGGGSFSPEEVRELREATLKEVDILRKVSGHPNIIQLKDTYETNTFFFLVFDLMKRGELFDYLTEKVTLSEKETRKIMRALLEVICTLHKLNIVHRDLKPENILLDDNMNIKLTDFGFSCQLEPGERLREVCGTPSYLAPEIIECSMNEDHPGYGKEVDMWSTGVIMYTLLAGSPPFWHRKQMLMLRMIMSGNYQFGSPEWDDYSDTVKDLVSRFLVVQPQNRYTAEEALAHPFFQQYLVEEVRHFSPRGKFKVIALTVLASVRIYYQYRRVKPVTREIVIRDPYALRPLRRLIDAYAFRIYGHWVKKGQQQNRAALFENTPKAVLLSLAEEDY
smiles,measurement,setting,value
CCCC(=O)Oc1ccc2[nH]c(C(=O)c3cc4ccccc4[nH]3)cc2c1,residual activity,CDK5 CDK5R1 p25 (human),90.1%
same,residual activity,CAMK1 (human),98.8%
same,residual activity,STK11 (human),101%
same,residual activity,LIMK1 (human),93.9%
same,residual activity,PRKCE (human),91%
same,residual activity,CSNK1E (human),97.4%
same,residual activity,DMPK (human),94.4%
same,residual activity,CDK1 CCNA2 (human),87.3%
same,residual activity,ADRBK1 (human),101%
same,residual activity,ERBB2 (human),85.9%
same,residual activity,PAK1 (human),95.8%
same,residual activity,MAPK13 (human),103%
same,residual activity,FRK (human),98.2%
same,residual activity,PHKG1 (human),93.7%
same,residual activity,CLK1 (human),99.3%
same,residual activity,PRKACA (human),96.6%
same,residual activity,SRPK1 (human),105%
same,residual activity,NEK7 (human),95.5%
same,residual activity,MYLK2 (human),98.2%
same,residual activity,PRKCB2 (human),102%
same,residual activity,PTK2 (human),94.1%
same,residual activity,RPS6KA6 KD1 KD2 (human),95.4%
same,residual activity,KDR (human),90.4%
same,residual activity,DYRK3 (human),92.6%
same,residual activity,ACVR1B (human),98.9%
same,residual activity,STK17A (human),90.9%
same,residual activity,PKN2 (human),100%
same,residual activity,RPS6KA2 KD1 KD2 (human),85%
same,residual activity,MAP3K2 (human),81.7%
same,residual activity,FGFR1 (human),96%
same,residual activity,MKNK2 (human),105%
same,residual activity,PTK6 (human),85.4%
same,residual activity,NEK1 (human),94.3%
same,residual activity,PAK7 (human),91%
same,residual activity,DDR2 (human),89.9%
same,residual activity,GSK3A (human),94.1%
same,residual activity,INSRR (human),97.9%
same,residual activity,PRKCH (human),93.6%
same,residual activity,CAMKK2 (human),84.6%
same,residual activity,PHKG2 (human),117%
same,residual activity,BRSK1 (human),99.5%
Nc1ncnc2c1c(-c1ccc(Oc3ccccc3)cc1)cn2C1CCCC1,residual activity,CAMK1 (human),100%
same,residual activity,STK11 (human),101%
same,residual activity,LIMK1 (human),95.7%
same,residual activity,PRKCE (human),96%
same,residual activity,CSNK1E (human),22.3%
same,residual activity,DMPK (human),136%
same,residual activity,CDK1 CCNA2 (human),93.7%
same,residual activity,ADRBK1 (human),97.8%
same,residual activity,ERBB2 (human),101%
same,residual activity,PAK1 (human),96%
same,residual activity,MAPK13 (human),95.3%
same,residual activity,FRK (human),6.25%
same,residual activity,PHKG1 (human),91.1%
same,residual activity,CLK1 (human),103%
same,residual activity,PRKACA (human),100%
same,residual activity,SRPK1 (human),105%
same,residual activity,NEK7 (human),94.6%
same,residual activity,MYLK2 (human),92.4%
same,residual activity,PRKCB2 (human),107%
same,residual activity,PTK2 (human),93.9%
same,residual activity,RPS6KA6 KD1 KD2 (human),96.6%
same,residual activity,KDR (human),75%
same,residual activity,DYRK3 (human),94.9%
same,residual activity,ACVR1B (human),93.9%
same,residual activity,STK17A (human),96.3%
same,residual activity,PKN2 (human),104%
same,residual activity,RPS6KA2 KD1 KD2 (human),101%
same,residual activity,DYRK1A (human),99.1%
same,residual activity,MAP3K2 (human),83.8%
same,residual activity,FGFR1 (human),77.4%
same,residual activity,MKNK2 (human),94.9%
same,residual activity,PTK6 (human),0.775%
same,residual activity,NEK1 (human),79.3%
same,residual activity,PAK7 (human),102%
same,residual activity,DDR2 (human),95%
same,residual activity,GSK3A (human),105%
same,residual activity,INSRR (human),81.9%
same,residual activity,PRKCH (human),92.6%
same,residual activity,CAMKK2 (human),86.3%
same,residual activity,PHKG2 (human),96.9%
same,residual activity,BRSK1 (human),99.7%
c1ccc(-c2n[nH]cc2-c2ccnc3ccccc23)nc1,residual activity,CDK5 CDK5R1 p25 (human),97.2%
same,residual activity,CAMK1 (human),96.1%
same,residual activity,STK11 (human),82.6%
same,residual activity,LIMK1 (human),103%
same,residual activity,PRKCE (human),101%
same,residual activity,CSNK1E (human),53.9%
same,residual activity,DMPK (human),106%
same,residual activity,CDK1 CCNA2 (human),82.7%
same,residual activity,ADRBK1 (human),101%
same,residual activity,ERBB2 (human),106%
same,residual activity,PAK1 (human),96.3%
same,residual activity,MAPK13 (human),110%
same,residual activity,FRK (human),92.8%
same,residual activity,PHKG1 (human),94.2%
same,residual activity,CLK1 (human),106%
same,residual activity,PRKACA (human),107%
same,residual activity,SRPK1 (human),98.4%
same,residual activity,NEK7 (human),102%
same,residual activity,MYLK2 (human),98.3%
same,residual activity,PRKCB2 (human),92.1%
same,residual activity,PTK2 (human),99.3%
same,residual activity,RPS6KA6 KD1 KD2 (human),112%
same,residual activity,KDR (human),103%
same,residual activity,DYRK3 (human),104%
same,residual activity,ACVR1B (human),43.2%
same,residual activity,STK17A (human),117%
same,residual activity,PKN2 (human),91.4%
same,residual activity,RPS6KA2 KD1 KD2 (human),96.3%
same,residual activity,DYRK1A (human),90.9%
same,residual activity,MAP3K2 (human),91.2%
same,residual activity,FGFR1 (human),94.2%
same,residual activity,MKNK2 (human),81.9%
same,residual activity,PTK6 (human),70.9%
same,residual activity,PAK7 (human),97.1%
same,residual activity,DDR2 (human),95.1%
same,residual activity,GSK3A (human),95.1%
same,residual activity,INSRR (human),101%
same,residual activity,PRKCH (human),94.6%
same,residual activity,CAMKK2 (human),97%
same,residual activity,PHKG2 (human),97.7%
same,residual activity,BRSK1 (human),99%
Oc1cccc(-c2nc(N3CCOCC3)c3oc4ncccc4c3n2)c1,residual activity,CDK5 CDK5R1 p25 (human),77.9%
same,residual activity,CAMK1 (human),101%
same,residual activity,STK11 (human),86.4%
same,residual activity,LIMK1 (human),93.7%
same,residual activity,PRKCE (human),100%
same,residual activity,CSNK1E (human),87.1%
same,residual activity,DMPK (human),99.5%
same,residual activity,CDK1 CCNA2 (human),84.4%
same,residual activity,ADRBK1 (human),107%
same,residual activity,ERBB2 (human),105%
same,residual activity,PAK1 (human),97.6%
same,residual activity,MAPK13 (human),97.4%
same,residual activity,FRK (human),91.3%
same,residual activity,PHKG1 (human),93.3%
same,residual activity,CLK1 (human),85.2%
same,residual activity,PRKACA (human),99.5%
same,residual activity,SRPK1 (human),105%
same,residual activity,NEK7 (human),97.3%
same,residual activity,MYLK2 (human),99%
same,residual activity,PRKCB2 (human),102%
same,residual activity,PTK2 (human),93.5%
same,residual activity,RPS6KA6 KD1 KD2 (human),98.2%
same,residual activity,KDR (human),85.9%
same,residual activity,DYRK3 (human),94.9%
same,residual activity,STK17A (human),93.8%
same,residual activity,PKN2 (human),87.6%
same,residual activity,RPS6KA2 KD1 KD2 (human),88.1%
same,residual activity,DYRK1A (human),94.3%
same,residual activity,MAP3K2 (human),103%
same,residual activity,FGFR1 (human),91.7%
same,residual activity,MKNK2 (human),92.6%
same,residual activity,PTK6 (human),80.8%
same,residual activity,NEK1 (human),77.8%
same,residual activity,PAK7 (human),92.8%
same,residual activity,DDR2 (human),94.6%
same,residual activity,GSK3A (human),90.2%
same,residual activity,INSRR (human),114%
same,residual activity,PRKCH (human),89.8%
same,residual activity,CAMKK2 (human),79.8%
same,residual activity,PHKG2 (human),99.1%
same,residual activity,BRSK1 (human),91.1%
